ChEMBL document CHEMBL5223144, “Second generation Spautin-1 analogues targeting EGFR-mutant non-small cell lung cancer cells” (Bioorg Med Chem Lett, 2023)
Activity calls are given as the source filed them. The calls are words filed in the database; no cut-off is given here.

How the values were obtained:
PC-9 [1] = assay: Cytotoxicity against human PC-9 cells harboring EGFR mutant assessed as inhibition of cell growth; assay type: functional, cell-based
PC-9 [2] = assay: Additive cytotoxicity against human PC-9 cells assessed as reduction in cell viability at 34 nM incubated in presence of afatinib; assay type: functional, cell-based
BEAS-2B [3] = assay: Cytotoxicity against human BEAS-2B cells assessed as reduction in cell viability at 34 nM; assay type: toxicity, cell-based; conditions: 0.034 µM
BEAS-2B [4] = assay: Cytotoxicity against human BEAS-2B cells assessed as reduction in cell viability at 34 nM incubated in presence of afatinib; assay type: toxicity, cell-based; conditions: 0.034 µM
[5] = biological target: Epidermal growth factor receptor (Homo sapiens) (UniProt P00533); assay: Inhibition of EGFR (unknown origin) assessed as residual activity relative to control
Chain of Epidermal growth factor receptor (Homo sapiens) (P00533 whole entry): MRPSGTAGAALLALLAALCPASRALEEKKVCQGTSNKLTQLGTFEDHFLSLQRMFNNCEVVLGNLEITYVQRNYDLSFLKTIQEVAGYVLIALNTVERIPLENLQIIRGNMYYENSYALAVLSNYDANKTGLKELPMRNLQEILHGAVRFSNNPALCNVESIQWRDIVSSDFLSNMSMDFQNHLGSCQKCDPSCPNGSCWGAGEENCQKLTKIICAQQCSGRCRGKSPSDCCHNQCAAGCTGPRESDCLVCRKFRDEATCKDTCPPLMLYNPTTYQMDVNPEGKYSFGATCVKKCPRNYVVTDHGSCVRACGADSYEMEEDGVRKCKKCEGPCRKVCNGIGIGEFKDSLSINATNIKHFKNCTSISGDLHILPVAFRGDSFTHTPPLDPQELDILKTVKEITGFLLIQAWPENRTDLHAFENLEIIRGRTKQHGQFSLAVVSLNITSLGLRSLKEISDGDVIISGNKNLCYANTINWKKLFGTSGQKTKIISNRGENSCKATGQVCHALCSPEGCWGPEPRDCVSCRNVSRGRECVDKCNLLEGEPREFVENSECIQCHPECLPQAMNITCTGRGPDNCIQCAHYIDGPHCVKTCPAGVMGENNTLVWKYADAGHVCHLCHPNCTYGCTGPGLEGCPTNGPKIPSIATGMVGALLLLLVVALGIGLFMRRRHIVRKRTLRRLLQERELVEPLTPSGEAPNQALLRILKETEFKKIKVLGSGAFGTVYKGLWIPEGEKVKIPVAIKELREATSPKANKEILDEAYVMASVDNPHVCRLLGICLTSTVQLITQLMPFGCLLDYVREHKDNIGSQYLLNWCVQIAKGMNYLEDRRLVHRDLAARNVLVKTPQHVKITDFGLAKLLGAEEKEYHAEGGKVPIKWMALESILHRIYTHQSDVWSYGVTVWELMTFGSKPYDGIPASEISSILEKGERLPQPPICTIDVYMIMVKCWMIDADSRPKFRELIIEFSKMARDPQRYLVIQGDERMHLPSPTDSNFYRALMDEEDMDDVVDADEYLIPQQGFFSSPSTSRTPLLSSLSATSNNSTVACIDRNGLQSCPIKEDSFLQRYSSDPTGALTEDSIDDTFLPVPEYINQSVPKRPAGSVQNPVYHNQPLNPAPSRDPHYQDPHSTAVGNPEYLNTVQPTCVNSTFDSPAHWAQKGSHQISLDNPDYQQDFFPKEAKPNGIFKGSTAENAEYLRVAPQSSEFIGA

[6] = biological target: Tyrosine-protein kinase Fer (Homo sapiens) (UniProt P16591); assay: Inhibition of FER (unknown origin) at 50 nM
Chain of Tyrosine-protein kinase Fer (Homo sapiens) (P16591 whole entry, looked up): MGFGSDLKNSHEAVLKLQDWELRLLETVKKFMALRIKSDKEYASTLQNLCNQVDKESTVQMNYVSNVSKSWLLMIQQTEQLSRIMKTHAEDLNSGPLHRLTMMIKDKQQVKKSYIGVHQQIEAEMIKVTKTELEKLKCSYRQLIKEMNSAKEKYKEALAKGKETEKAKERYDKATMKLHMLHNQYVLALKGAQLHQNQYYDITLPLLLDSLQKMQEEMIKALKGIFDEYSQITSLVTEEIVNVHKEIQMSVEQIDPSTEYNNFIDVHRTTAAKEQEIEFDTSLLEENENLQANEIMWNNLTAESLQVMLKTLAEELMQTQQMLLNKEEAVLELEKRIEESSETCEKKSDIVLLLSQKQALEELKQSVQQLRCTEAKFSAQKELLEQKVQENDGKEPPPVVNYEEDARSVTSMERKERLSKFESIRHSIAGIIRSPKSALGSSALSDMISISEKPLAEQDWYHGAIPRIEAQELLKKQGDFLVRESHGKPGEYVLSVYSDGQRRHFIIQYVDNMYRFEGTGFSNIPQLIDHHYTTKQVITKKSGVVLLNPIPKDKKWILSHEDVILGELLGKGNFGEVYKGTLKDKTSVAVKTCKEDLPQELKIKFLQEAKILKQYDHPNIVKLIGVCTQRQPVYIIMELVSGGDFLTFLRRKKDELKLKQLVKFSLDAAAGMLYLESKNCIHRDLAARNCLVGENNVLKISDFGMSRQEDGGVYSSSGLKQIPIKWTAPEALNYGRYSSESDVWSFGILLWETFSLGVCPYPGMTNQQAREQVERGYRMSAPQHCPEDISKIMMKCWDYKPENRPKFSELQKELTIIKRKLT

[7] = biological target: ALK tyrosine kinase receptor (Homo sapiens) (UniProt Q9UM73); assay: Inhibition of ALK (unknown origin) at 50 nM
Chain of ALK tyrosine kinase receptor (Homo sapiens) (Q9UM73 19-1620 limits assumed): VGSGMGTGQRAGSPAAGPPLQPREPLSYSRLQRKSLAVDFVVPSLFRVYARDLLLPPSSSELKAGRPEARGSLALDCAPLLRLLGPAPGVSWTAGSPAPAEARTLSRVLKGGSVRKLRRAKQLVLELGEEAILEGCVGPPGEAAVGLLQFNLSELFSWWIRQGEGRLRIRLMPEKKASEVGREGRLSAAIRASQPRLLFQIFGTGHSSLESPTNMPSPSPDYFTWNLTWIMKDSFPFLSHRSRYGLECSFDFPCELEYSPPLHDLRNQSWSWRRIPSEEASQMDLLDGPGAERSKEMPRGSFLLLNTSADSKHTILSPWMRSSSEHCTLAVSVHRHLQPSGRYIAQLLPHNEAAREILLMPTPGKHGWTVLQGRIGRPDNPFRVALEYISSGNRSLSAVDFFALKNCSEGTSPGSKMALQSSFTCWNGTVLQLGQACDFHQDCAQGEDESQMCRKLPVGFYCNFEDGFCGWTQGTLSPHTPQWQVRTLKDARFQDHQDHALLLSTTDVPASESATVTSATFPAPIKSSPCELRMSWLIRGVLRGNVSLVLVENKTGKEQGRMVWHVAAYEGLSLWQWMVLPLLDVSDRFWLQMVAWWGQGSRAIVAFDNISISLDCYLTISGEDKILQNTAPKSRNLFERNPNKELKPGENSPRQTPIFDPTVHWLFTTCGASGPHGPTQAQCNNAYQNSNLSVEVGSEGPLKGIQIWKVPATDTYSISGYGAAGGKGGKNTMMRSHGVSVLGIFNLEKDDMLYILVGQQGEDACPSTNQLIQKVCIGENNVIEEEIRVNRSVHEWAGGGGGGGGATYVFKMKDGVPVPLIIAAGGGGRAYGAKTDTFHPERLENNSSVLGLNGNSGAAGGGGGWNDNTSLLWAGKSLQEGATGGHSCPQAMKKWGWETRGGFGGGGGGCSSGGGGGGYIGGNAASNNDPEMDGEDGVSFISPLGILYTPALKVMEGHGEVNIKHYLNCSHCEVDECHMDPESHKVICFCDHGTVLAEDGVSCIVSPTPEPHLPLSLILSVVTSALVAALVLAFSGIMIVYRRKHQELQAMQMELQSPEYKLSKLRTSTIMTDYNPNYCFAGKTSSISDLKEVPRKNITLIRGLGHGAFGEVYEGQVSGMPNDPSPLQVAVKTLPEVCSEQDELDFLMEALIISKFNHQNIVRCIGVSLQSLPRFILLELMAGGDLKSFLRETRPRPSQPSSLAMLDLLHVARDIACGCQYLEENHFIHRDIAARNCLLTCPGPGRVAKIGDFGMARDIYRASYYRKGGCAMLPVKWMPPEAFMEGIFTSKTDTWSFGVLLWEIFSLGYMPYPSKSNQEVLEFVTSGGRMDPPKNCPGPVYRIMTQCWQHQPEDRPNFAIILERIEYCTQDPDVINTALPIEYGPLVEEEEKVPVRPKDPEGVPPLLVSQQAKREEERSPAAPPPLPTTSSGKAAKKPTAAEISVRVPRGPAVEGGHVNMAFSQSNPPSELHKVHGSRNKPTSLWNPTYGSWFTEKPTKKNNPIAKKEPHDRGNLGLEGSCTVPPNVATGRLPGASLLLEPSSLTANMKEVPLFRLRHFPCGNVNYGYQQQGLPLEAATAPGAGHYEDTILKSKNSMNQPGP

[8] = biological target: Serine/threonine-protein kinase pim-1 (Homo sapiens) (UniProt P11309); assay: Inhibition of Moloney murine leukemia virus Proviral integration site 1 at 50 nM
PC-9 [9] = assay: Cytotoxicity against human PC-9 cells harboring EGFR mutant assessed as inhibition of cell growth incubated for 72 hrs by ATP-based luminescence CellTiter-Glo assay; assay type: functional; conditions: PC-9, 72 h
PC-9 [10] = assay: Additive cytotoxicity against human PC-9 cells assessed as reduction in cell viability at 4 nM incubated in presence of afatinib; assay type: functional, cell-based
BEAS-2B [11] = assay: Cytotoxicity against human BEAS-2B cells assessed as reduction in cell viability at 4 nM; assay type: toxicity, cell-based; conditions: 0.004 µM
BEAS-2B [12] = assay: Cytotoxicity against human BEAS-2B cells assessed as reduction in cell viability at 4 nM incubated in presence of afatinib; assay type: toxicity, cell-based; conditions: 0.004 µM
[13] = biological target: Tyrosine-protein kinase Fer (Homo sapiens) (UniProt P16591); assay: Inhibition of FER (unknown origin) at 10 nM
[14] = biological target: ALK tyrosine kinase receptor (Homo sapiens) (UniProt Q9UM73); assay: Inhibition of ALK (unknown origin) at 10 nM
[15] = biological target: Serine/threonine-protein kinase pim-1 (Homo sapiens) (UniProt P11309); assay: Inhibition of Moloney murine leukemia virus Proviral integration site 1 at 10 nM

Structure (SMILES)	IC50 (PC-9 [1]) [µM]	also measured
Fc1ccc2ncnc(NCCc3cccc(-c4ccccc4)c3)c2c1	0.668	
Fc1ccc2ncnc(NCCc3ccc(-c4cccnc4)cc3)c2c1	1.04	
Cc1ccc(-c2ccc(CCNc3ncnc4ccc(F)cc34)cc2)cc1	0.049	
Fc1ccc(-c2ccc(CCNc3ncnc4ccc(F)cc34)cc2)c(F)c1	0.034	Activity (PC-9 [2]): Active; Activity (BEAS-2B [3]): Non-Toxic; Activity (BEAS-2B [4]): Non-Toxic; Activity [5]: > 90%; inhibition [6]: Active; inhibition [7]: Active; inhibition [8]: Active
Fc1ccc2ncnc(NCCc3ccc(Oc4ccccc4)cc3)c2c1	0.014	
Fc1ccc2ncnc(NCCc3ccc(-c4cccc5ccccc45)cc3)c2c1	0.291	
CC(C)(C)c1ccc(-c2ccc(CCNc3ncnc4ccc(F)cc34)cc2)cc1	0.363	
Fc1ccc2ncnc(NC3CCc4cc(Br)ccc4C3)c2c1 (centres undefined)	0.718	
Fc1ccc2ncnc(NCCc3ccc(-c4ccc(Cl)cc4)cc3)c2c1	0.044	
Fc1ccc2ncnc(NCCc3ccc(Br)cc3)c2c1		IC50 (PC-9 [9]): 0.207 µM
Fc1ccc2ncnc(NCCc3ccc(-c4ccc(Oc5ccccc5)cc4)cc3)c2c1	0.28	
Fc1ccc2ncnc(NCCc3ccc(-c4ccoc4)cc3)c2c1	0.288	
COc1cccc(-c2ccc(CCNc3ncnc4ccc(F)cc34)cc2)c1	0.067	
Fc1ccc(-c2ccc(CCNc3ncnc4ccc(F)cc34)cc2)cc1	0.16	
Fc1ccc2ncnc(NCCc3ccc(OCc4ccccc4)cc3)c2c1	0.03	
Fc1ccc2ncnc(NCCc3ccccc3-c3ccccc3)c2c1	> 5	
Fc1ccc2ncnc(NCCc3ccc(-c4ccccc4)cc3)c2c1	0.077	
Fc1ccc2ncnc(NCCc3ccc(-c4ccc(C(F)(F)F)cc4)cc3)c2c1	0.131	
COc1ccc(-c2ccc(CCNc3ncnc4ccc(F)cc34)cc2)cc1	0.069	
Fc1ccc(Oc2ccc(CCNc3ncnc4ccc(F)cc34)cc2)cc1	0.004	Activity (PC-9 [10]): Active; Activity (BEAS-2B [11]): Non-Toxic; Activity (BEAS-2B [12]): Non-Toxic; Activity [5]: > 90%; inhibition [13]: Active; inhibition [14]: Active; inhibition [15]: Active

Structure (SMILES)	IC50 (PC-9 [1]) [µM]	also measured
Fc1ccc2ncnc(NCCc3ccc(-c4ccc5c(c4)OCCO5)cc3)c2c1	0.069	
Fc1ccc2ncnc(NCCc3ccc(-c4ccc5ccccc5c4)cc3)c2c1	0.101	
Fc1ccc2ncnc(Nc3ccc4cc(Br)ccc4c3)c2c1	> 5	
Fc1ccc(CNc2ncnc3ccc(F)cc23)cc1		IC50 (PC-9 [9]): > 5 µM
Fc1ccc2ncnc(NCCc3ccc4ccccc4c3)c2c1	0.064	
Fc1ccc2ncnc(NCCc3ccc(-c4ccco4)cc3)c2c1	0.636	
Fc1ccc2ncnc(NCCc3ccc(-c4ccc5oc6ccccc6c5c4)cc3)c2c1	0.079	
Fc1ccc2ncnc(NCCc3cccc(Br)c3)c2c1	0.685	
Fc1ccc2ncnc(NCCc3ccc(-c4cccc(F)c4F)cc3)c2c1	0.076	
Fc1ccc2ncnc(NCCc3ccc(-c4ccccc4F)cc3)c2c1	0.066	
Fc1ccc2ncnc(NCCc3ccc(-c4ccc(F)c(F)c4)cc3)c2c1	0.138	
CC(C)(C)c1ccc(CCNc2ncnc3ccc(F)cc23)cc1	0.045	
COc1ccccc1-c1ccc(CCNc2ncnc3ccc(F)cc23)cc1	0.105	
COc1ccc(Oc2ccc(CCNc3ncnc4ccc(F)cc34)cc2)cc1	0.007	
CC(C)(C)Oc1ccc(-c2ccc(CCNc3ncnc4ccc(F)cc34)cc2)cc1	1.7	
Fc1cccc(-c2ccc(CCNc3ncnc4ccc(F)cc34)cc2)c1	0.618	
Fc1ccc2ncnc(NCCc3ccc(I)cc3)c2c1	0.261	
Fc1ccc2ncnc(NCCc3ccccc3Br)c2c1	0.892	
CN(C)C/C=C/C(=O)Nc1cc2c(Nc3ccc(F)c(Cl)c3)ncnc2cc1O[C@H]1CCOC1 [AFATINIB]	0.005	
Fc1ccc2ncnc(NCCc3ccc(-c4ccncc4)cc3)c2c1	0.408	
